{"source": "patent US7105654B1", "about": "“Ethylene receptor gene from Glycine max and its use” (Monsanto Technology LLC, priority 2002, dated 2006)", "tested_on": "soybean (Glycine max) seedlings", "experiment": "ACC insensitivity assay (hypocotyl length of dark-grown seedlings)", "format": "in vivo", "conditions": "nontransformed soybean variety Asgrow A4922, grown in the dark; without ACC greater than 70 millimeters", "protocol": "FIG. 4. R1 seeds from pMON47103, pMON47104, and pMON47108 were screened by an ACC insensitivity assay. […] Hypocotyl length was measured after six days and the average value presented.\nSeeds were germinated in growth pouches (Mega International, Minneapolis, Minn.) containing 25 milliliters of 25 micromolar 1-aminocyclopropane-1-carboxylic acid (ACC) (Sigma Chemical Company) or in tissue culture boxes containing agar, water, and 20 micromolar ACC. Seedlings were kept in the dark for seven days. Growth of hypocotyl and root were scored in comparison to seedlings grown in water with all other conditions identical. An alternative protocol was used to measure growth in a solid matrix. Vermiculite was placed in a 4″×4″ plastic pot to ½″ below the rim. Twelve seeds were placed in each pot beneath the surface of the vermiculite. A solution of 500 micromolar ACC in distilled water was used to saturate the vermiculite. The pots were placed in a tray with additional solution to ensure a supply during incubation. The plants were incubated in a dark ventilated cabinet at room temperature for six days. On the sixth day, seedlings were removed from the vermiculite and rinsed. The hypocotyl length (from first lateral root to the bend of the apical hook) was measured and compared against wild type plants grown in the same environmental condition. […]"}
{"molecule": "NC1(C(=O)O)CC1", "note": "[ACC, 1-aminocyclopropane-1-carboxylic acid]", "values": [{"measurement": "average height of seedlings in response to applied ACC", "value": "less than 20 millimeters"}]}
